From PubChem BioAssay AID1963440 (Molecular Pharmacology Branch, DTP, NCI, 2024)

System: NCI-H1417 complex spheroids, growth % test/control
Assay: Anticancer human tumor NCI-H1417 cell line growth inhibition [Asc];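 also: spheroids exposed to compounds for 7 days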;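 as to viability, T/C: 100% = DMSO vehicle control wells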
Conditions: for IC50: curve of first compound; for viability, T/C: stronger effect = lower value
In short: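 Stromal components (HUVEC and hMSC) are co-assembled with the cancer cells into multicellular spheroids. Drugs are then added singly or paired, at concentrations falling by half-log increments from a clinically achievable maximum, capped at 10 microM without known Cmax.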

[1] = second compound 0.01 µM, first compound 0.00316 µM
[2] = second compound 0.01 µM, first compound 0.01 µM
[3] = second compound 0.01 µM, first compound 0.0316 µM
[4] = second compound 0.01 µM, first compound 0.1 µM
[5] = second compound 0.01 µM, first compound 0.316 µM
[6] = second compound 0.01 µM, first compound 1 µM
[7] = second compound 0.0316 µM, first compound 0.00316 µM
[8] = second compound 0.0316 µM, first compound 0.01 µM
[9] = second compound 0.0316 µM, first compound 0.0316 µM
[10] = second compound 0.0316 µM, first compound 0.1 µM
[11] = second compound 0.0316 µM, first compound 0.316 µM
[12] = second compound 0.0316 µM, first compound 1 µM
[13] = second compound 0.1 µM, first compound 0.00316 µM
[14] = second compound 0.1 µM, first compound 0.01 µM
[15] = second compound 0.1 µM, first compound 0.0316 µM
[16] = second compound 0.1 µM, first compound 0.1 µM
[17] = second compound 0.1 µM, first compound 0.316 µM
[18] = second compound 0.1 µM, first compound 1 µM
[19] = second compound 0.316 µM, first compound 0.00316 µM
[20] = second compound 0.316 µM, first compound 0.01 µM
[21] = second compound 0.316 µM, first compound 0.0316 µM
[22] = second compound 0.316 µM, first compound 0.1 µM
[23] = second compound 0.316 µM, first compound 0.316 µM
[24] = second compound 0.316 µM, first compound 1 µM
[25] = second compound 1 µM, first compound 0.00316 µM
[26] = second compound 1 µM, first compound 0.01 µM
[27] = second compound 1 µM, first compound 0.0316 µM
[28] = second compound 1 µM, first compound 0.1 µM
[29] = second compound 1 µM, first compound 0.316 µM
[30] = second compound 1 µM, first compound 1 µM

IC50 (second compound 0.01 µM) [nM]	IC50 (second compound 0.0316 µM) [nM]	IC50 (second compound 0.1 µM) [nM]	IC50 (second compound 0.316 µM) [nM]	IC50 (second compound 1 µM) [nM]	Compound	viability, T/C [1] [%]	viability, T/C [2] [%]	viability, T/C [3] [%]	viability, T/C [4] [%]	viability, T/C [5] [%]	viability, T/C [6] [%]	viability, T/C [7] [%]	viability, T/C [9] [%]	viability, T/C [10] [%]	viability, T/C [15] [%]	viability, T/C [16] [%]	viability, T/C [21] [%]	viability, T/C [22] [%]	viability, T/C [27] [%]	viability, T/C [28] [%]	further results
> 1000	> 1000	> 1000	> 1000	> 1000	CCN1CCN(Cc2ccc(Nc3ncc(F)c(-c4cc(F)c5nc(C)n(C(C)C)c5c4)n3)nc2)CC1 + CNC(C)C(=O)NC1CN(S(=O)(=O)c2cccc(S(=O)(=O)N3CCC4CCC(C(=O)NC(c5ccccc5)c5ccccc5)N4C(=O)C(NC(=O)C(C)NC)C3)c2)CCC2CCC(C(=O)NC(c3ccccc3)c3ccccc3)N2C1=O	100	108	106	99.7	96.5	111	102	104	105	99.2	97.8	90.6	99.9	101	110	viability, T/C [8]: 103%; viability, T/C [11]: 97.4%; viability, T/C [12]: 103%; viability, T/C [13]: 93.2%; viability, T/C [14]: 101%; viability, T/C [17]: 103%; viability, T/C [18]: 109%; viability, T/C [19]: 99.3%; viability, T/C [20]: 105%; viability, T/C [23]: 95.2%; viability, T/C [24]: 97.7%; viability, T/C [25]: 105%; viability, T/C [26]: 109%; viability, T/C [29]: 90%; viability, T/C [30]: 93.7%
> 100	> 100	> 100	> 100	> 100	Cn1ncnc1[C@H]1c2n[nH]c(=O)c3cc(F)cc(c23)N[C@@H]1c1ccc(F)cc1 + CNC(C)C(=O)NC1CN(S(=O)(=O)c2cccc(S(=O)(=O)N3CCC4CCC(C(=O)NC(c5ccccc5)c5ccccc5)N4C(=O)C(NC(=O)C(C)NC)C3)c2)CCC2CCC(C(=O)NC(c3ccccc3)c3ccccc3)N2C1=O	96.8	81.1	69.4	85.3	–	–	94	69	80.2	66.9	74	64.3	70.1	80	84.4	viability, T/C (second compound 0.01 µM, first compound 0.000316 µM): 110%; viability, T/C (second compound 0.01 µM, first compound 0.001 µM): 115%; viability, T/C (second compound 0.0316 µM, first compound 0.000316 µM): 104%; viability, T/C (second compound 0.0316 µM, first compound 0.001 µM): 98.8%; viability, T/C [8]: 87.4%; viability, T/C (second compound 0.1 µM, first compound 0.000316 µM): 95.8%; viability, T/C (second compound 0.1 µM, first compound 0.001 µM): 93%; viability, T/C [13]: 90.9%; viability, T/C [14]: 78.3%; viability, T/C (second compound 0.316 µM, first compound 0.000316 µM): 99.6%; viability, T/C (second compound 0.316 µM, first compound 0.001 µM): 110%; viability, T/C [19]: 102%; viability, T/C [20]: 78.5%; viability, T/C (second compound 1 µM, first compound 0.000316 µM): 98%; viability, T/C (second compound 1 µM, first compound 0.001 µM): 112%; viability, T/C [25]: 95.4%; viability, T/C [26]: 81.3%
5780	6330	4790	5520	5390	O=C(c1cc(Cc2n[nH]c(=O)c3ccccc23)ccc1F)N1CCN(C(=O)C2CC2)CC1 + CNC(C)C(=O)NC1CN(S(=O)(=O)c2cccc(S(=O)(=O)N3CCC4CCC(C(=O)NC(c5ccccc5)c5ccccc5)N4C(=O)C(NC(=O)C(C)NC)C3)c2)CCC2CCC(C(=O)NC(c3ccccc3)c3ccccc3)N2C1=O	–	–	101	101	94.7	83.6	–	102	87.8	90.3	93.5	99.9	92.3	97.7	90	viability, T/C (second compound 0.01 µM, first compound 3.16 µM): 65.6%; viability, T/C (second compound 0.01 µM, first compound 10 µM): 36.1%; viability, T/C [11]: 88.5%; viability, T/C [12]: 100%; viability, T/C (second compound 0.0316 µM, first compound 3.16 µM): 71.5%; viability, T/C (second compound 0.0316 µM, first compound 10 µM): 35.8%; viability, T/C [17]: 81.8%; viability, T/C [18]: 90%; viability, T/C (second compound 0.1 µM, first compound 3.16 µM): 60.7%; viability, T/C (second compound 0.1 µM, first compound 10 µM): 30.9%; viability, T/C [23]: 96.7%; viability, T/C [24]: 85.6%; viability, T/C (second compound 0.316 µM, first compound 3.16 µM): 68.8%; viability, T/C (second compound 0.316 µM, first compound 10 µM): 30%; viability, T/C [29]: 91.2%; viability, T/C [30]: 95%; viability, T/C (second compound 1 µM, first compound 3.16 µM): 65.5%; viability, T/C (second compound 1 µM, first compound 10 µM): 32%
> 1000	> 1000	> 1000	> 1000	> 1000	O=C(c1ccc(F)c(F)c1Nc1ccc(I)cc1F)N1CC(O)([C@@H]2CCCCN2)C1 + CNC(C)C(=O)NC1CN(S(=O)(=O)c2cccc(S(=O)(=O)N3CCC4CCC(C(=O)NC(c5ccccc5)c5ccccc5)N4C(=O)C(NC(=O)C(C)NC)C3)c2)CCC2CCC(C(=O)NC(c3ccccc3)c3ccccc3)N2C1=O	107	102	95	103	99.5	85.3	107	92.7	102	95.3	98.4	110	90.9	82.8	95.8	viability, T/C [8]: 96.6%; viability, T/C [11]: 96.7%; viability, T/C [12]: 103%; viability, T/C [13]: 101%; viability, T/C [14]: 90.8%; viability, T/C [17]: 99.4%; viability, T/C [18]: 91.2%; viability, T/C [19]: 88.6%; viability, T/C [20]: 104%; viability, T/C [23]: 105%; viability, T/C [24]: 101%; viability, T/C [25]: 88%; viability, T/C [26]: 93.8%; viability, T/C [29]: 91.4%; viability, T/C [30]: 102%
